Results as given in patent US20200017549A1, “NOVEL a4B7 PEPTIDE ANTAGONISTS” (Protagonist Therapeutics, Inc., priority 2013, published 2020).
Bridge positions count the residues as written; N and C are the ends. Square brackets hold non-standard residues; d marks the D form. Peptide text beside a SMILES is read from it. NMeR = CN[C@@H](CCCNC(=N)N)C(=O)O; Pen = CC(C)(S)[C@H](N)C(=O)O

Assay: Simulated Intestinal Fluid (SIF) Stability Assay
Type: in vitro ADME
Settings: for stability in simulated intestinal fluids (SIF): Cys substituted with Pen, compared to SEQ ID NO: 46 with Cys
Method: Simulated Intestinal Fluid (SIF) Stability Assay
Studies were carried out in simulated intestinal fluid (SIF) to evaluate gastric stability of the peptide molecules of the instant invention. SIF was prepared by adding 6.8 g of monobasic potassium phosphate and 10.0 g of pancreatin to 1.0 L of water. After dissolution, the pH was adjusted to 6.8 using NaOH. DMSO stocks (2 mM) were first prepared for the test compounds. Aliquots of the DMSO solutions were dosed into 6 individual tubes, each containing 0.5 mL of SIF, which had been pre-warmed to 37° C.
The final test compound concentration was 20 μM. The vials were kept in a benchtop Thermomixer® for the duration of the experiment. At each time point (0, 5, 10, 20, 40, and 60 minutes), 1.0 mL of acetonitrile containing 1% formic acid was added to one vial to terminate the reaction. Samples were stored at 4° C. until the end of the experiment. After the final timepoint was sampled, the tubes were mixed and then centrifuged at 3,000 rpm for 10 minutes. Aliquots of the supernatant were removed, diluted 1:1 into distilled water containing internal standard, and analyzed by LCMS/MS. Percent remaining at each time point was calculated based on the peak area response ratio of test to compound to internal standard. Time 0 was set to 100%, and all later time points were calculated relative to time 0. Half-lives were calculated by fitting to a first-order exponential decay equation using GraphPad. A small sampling of the results of these studies is provided and discussed in connection FIG. 3, above.

SMILES | half-life in SIF (simulated intestinal fluid, pH 6.8, 37° C., N-Me-Arg substituted versus non-methylated variation) | stability in simulated intestinal fluids (SIF)
CC(=O)N[C@H]1CSSC[C@@H](C(N)=O)NC(=O)[C@H](CC(C)C)NC(=O)[C@H]([C@@H](C)O)NC(=O)[C@H](CC(=O)O)NC(=O)[C@H](CO)NC(=O)[C@H](CCCNC(=N)N)N(C)C1=O [SEQ ID NO: 46] (Ac-C[NMeR]SDTLC-NH2; disulfide 1-7) | increased half-life substantially | 
CC(=O)N[C@H]1CSSC(C)(C)[C@@H](C(=O)N[C@H](CCCCN)C(N)=O)NC(=O)[C@H](CC(C)C)NC(=O)[C@H]([C@@H](C)O)NC(=O)[C@H](CC(=O)O)NC(=O)[C@H](CO)NC(=O)[C@H](CCCNC(=N)N)N(C)C1=O [SEQ ID NO: 55] (Ac-C[NMeR]SDTL[Pen][dK]-NH2; disulfide 1-7) |  | increased stability significantly
CC(=O)N[C@H]1CSSC(C)(C)[C@@H](C(=O)N[C@@H](CCC(=O)O)C(=O)N[C@H](CCCCN)C(N)=O)NC(=O)[C@H](CC(C)C)NC(=O)[C@H]([C@@H](C)O)NC(=O)[C@H](CC(=O)O)NC(=O)[C@H](CO)NC(=O)[C@H](CCCNC(=N)N)N(C)C1=O [SEQ ID NO: 74] (Ac-C[NMeR]SDTL[Pen]E[dK]-NH2; disulfide 1-7) |  | increased stability significantly
CC(=O)N[C@@H]1C(=O)N(C)[C@@H](CCCNC(=N)N)C(=O)N[C@@H](CO)C(=O)N[C@@H](CC(=O)O)C(=O)N[C@@H]([C@@H](C)O)C(=O)N[C@@H](CC(C)C)C(=O)N[C@H](C(=O)N[C@H](CCCCN)C(N)=O)C(C)(C)SSC1(C)C [SEQ ID NO: 93] (Ac-[Pen][NMeR]SDTL[Pen][dK]-NH2; disulfide 1-7) |  | increased stability significantly
